Results as given in the CheMixHub viscosity set.
Values joined by “and” are separate entries in the source; they are usually repeats but may differ in a detail not shown here. Equal entries are not always repeated. ± gives the uncertainty stated by the source.

Assay: xn = mol fraction of the nth substance listed

CCC(=O)O + O
viscosity [mPa·s]
Conditions	x1 = 0.0263	x1 = 0.0944	x1 = 0.196	x1 = 0.362	x1 = 0.686
293.15 K, 101.33 kPa	1.322 ± 0.013	1.977 ± 0.02	2.601 ± 0.026	–	–
298.15 K, 101 kPa	1.443 ± 0.29	2.821 ± 0.57	3.483 ± 0.7	3.351 ± 0.68	2.816 ± 0.57
308.15 K, 101 kPa	1.08 ± 0.22	1.945 ± 0.39	2.418 ± 0.49	2.393 ± 0.48	2.082 ± 0.42
313.15 K, 101.33 kPa	0.858 ± 0.0086	1.188 ± 0.012	1.552 ± 0.016	–	–
318.15 K, 101 kPa	0.856 ± 0.17	1.434 ± 0.29	1.789 ± 0.36	1.789 ± 0.36	1.592 ± 0.32

CCCCCCCCCCCCCC[P+](CCCCCC)(CCCCCC)CCCCCC.c1c[n-]nn1 + O
Conditions	viscosity [mPa·s]
298.15 K, 100 kPa, x2 = 0.8003	106 ± 3

CNN + O
293.15 K, 101.3 kPa
Conditions	viscosity [mPa·s]
x1 = 0.0514	1.53 ± 0.05
x1 = 0.1003	2.35 ± 0.07
x1 = 0.1615	3.54 ± 0.11
x1 = 0.2017	4.51 ± 0.14
x1 = 0.2563	5.58 ± 0.18
x1 = 0.303	6 ± 0.19
x1 = 0.3482	5.9 ± 0.19
x1 = 0.4048	5.5 ± 0.18
x1 = 0.4408	4.91 ± 0.16
x1 = 0.5008	4.07 ± 0.13
x1 = 0.6034	2.98 ± 0.09
x1 = 0.6873	2.16 ± 0.07
x1 = 0.8036	1.56 ± 0.05
x1 = 0.8917	1.22 ± 0.04

C[C@H](N)C(=O)O + O
Conditions	viscosity
298 K, 101 kPa, x1 = 0.0004	0.887 ± 0.0076 mPa·s
298 K, 101 kPa, x1 = 0.0007	0.8925 ± 0.0076 mPa·s
298 K, 101 kPa, x1 = 0.001	0.8956 ± 0.0077 mPa·s
298 K, 101 kPa, x1 = 0.0018	0.9013 ± 0.0077 mPa·s
298.15 K, 100 kPa, x1 = 0.0004	0.8955 ± 0.036 mPa·s
298.15 K, 100 kPa, x1 = 0.0007	0.8979 ± 0.036 mPa·s
298.15 K, 100 kPa, x1 = 0.001	0.9003 ± 0.036 mPa·s and 0.9029 ± 0.036 mPa·s
298.15 K, 101 kPa, x1 = 0.000169	0.9489 ± 0.045 mPa·s and 0.9489 ± 0.031 mPa·s
298.15 K, 101 kPa, x1 = 0.00045	0.8958 ± 0.021 mPa·s
298.15 K, 101 kPa, x1 = 0.0009	0.9013 ± 0.021 mPa·s
298.15 K, 101 kPa, x1 = 0.00135	0.9069 ± 0.021 mPa·s
298.15 K, 101 kPa, x1 = 0.00178	0.9677 ± 0.046 mPa·s and 0.9677 ± 0.031 mPa·s
298.15 K, 101 kPa, x1 = 0.0018	0.9126 ± 0.021 mPa·s
298.15 K, 101 kPa, x1 = 0.002695	0.9242 ± 0.021 mPa·s
298.15 K, 101 kPa, x1 = 0.003596	0.9759 ± 0.046 mPa·s and 0.9759 ± 0.031 mPa·s
298.15 K, 101 kPa, x1 = 0.005338	0.9871 ± 0.047 mPa·s and 0.9871 ± 0.031 mPa·s
298.15 K, 101 kPa, x1 = 0.01087	1.039 ± 0.049 mPa·s and 1.039 ± 0.031 mPa·s
298.15 K, 101 kPa, x1 = 0.0124	1.045 ± 0.049 mPa·s and 1.045 ± 0.031 mPa·s
298.15 K, 101 kPa, x1 = 0.01417	1.054 ± 0.05 mPa·s and 1.054 ± 0.031 mPa·s
303.15 K, 101 kPa, x1 = 0.00045	0.8023 ± 0.018 mPa·s
303.15 K, 101 kPa, x1 = 0.0009	0.8076 ± 0.018 mPa·s
303.15 K, 101 kPa, x1 = 0.00135	0.8128 ± 0.019 mPa·s
303.15 K, 101 kPa, x1 = 0.0018	0.8182 ± 0.019 mPa·s
303.15 K, 101 kPa, x1 = 0.001802	0.8176 ± 0.017 mPa·s
303.15 K, 101 kPa, x1 = 0.002245	0.8235 ± 0.019 mPa·s
303.15 K, 101 kPa, x1 = 0.002695	0.829 ± 0.019 mPa·s
303.15 K, 101 kPa, x1 = 0.01069	0.9202 ± 0.019 mPa·s
303.15 K, 101 kPa, x1 = 0.01245	0.9412 ± 0.02 mPa·s
308.15 K, 101 kPa, x1 = 0.000169	0.7568 ± 0.036 mPa·s and 0.7568 ± 0.031 mPa·s
308.15 K, 101 kPa, x1 = 0.00045	0.7238 ± 0.017 mPa·s
308.15 K, 101 kPa, x1 = 0.000844	0.7678 ± 0.036 mPa·s and 0.7678 ± 0.031 mPa·s
308.15 K, 101 kPa, x1 = 0.0009	0.7288 ± 0.017 mPa·s
308.15 K, 101 kPa, x1 = 0.00135	0.7338 ± 0.017 mPa·s
308.15 K, 101 kPa, x1 = 0.00178	0.7755 ± 0.037 mPa·s and 0.7755 ± 0.031 mPa·s
308.15 K, 101 kPa, x1 = 0.002245	0.7439 ± 0.017 mPa·s
308.15 K, 101 kPa, x1 = 0.002695	0.749 ± 0.017 mPa·s
308.15 K, 101 kPa, x1 = 0.003596	0.799 ± 0.038 mPa·s and 0.799 ± 0.031 mPa·s
308.15 K, 101 kPa, x1 = 0.005338	0.8044 ± 0.038 mPa·s and 0.8044 ± 0.031 mPa·s
308.15 K, 101 kPa, x1 = 0.007149	0.8133 ± 0.038 mPa·s and 0.8133 ± 0.031 mPa·s
308.15 K, 101 kPa, x1 = 0.008823	0.8201 ± 0.039 mPa·s and 0.8201 ± 0.031 mPa·s
308.15 K, 101 kPa, x1 = 0.01087	0.8366 ± 0.04 mPa·s and 0.8366 ± 0.031 mPa·s
308.15 K, 101 kPa, x1 = 0.0124	0.8431 ± 0.04 mPa·s and 0.8431 ± 0.031 mPa·s
308.15 K, 101 kPa, x1 = 0.01417	0.8612 ± 0.041 mPa·s and 0.8612 ± 0.031 mPa·s
313.15 K, 101 kPa, x1 = 0.00045	0.6571 ± 0.015 mPa·s
313.15 K, 101 kPa, x1 = 0.0009	0.6618 ± 0.015 mPa·s
313.15 K, 101 kPa, x1 = 0.00135	0.6666 ± 0.015 mPa·s
313.15 K, 101 kPa, x1 = 0.0018	0.6714 ± 0.015 mPa·s
313.15 K, 101 kPa, x1 = 0.002245	0.6761 ± 0.015 mPa·s
313.15 K, 101 kPa, x1 = 0.002695	0.6809 ± 0.016 mPa·s
313.15 K, 101 kPa, x1 = 0.005374	0.6994 ± 0.015 mPa·s
313.15 K, 101 kPa, x1 = 0.008931	0.7316 ± 0.015 mPa·s
313.15 K, 101 kPa, x1 = 0.01245	0.7659 ± 0.016 mPa·s
318.15 K, 101 kPa, x1 = 0.000169	0.6345 ± 0.03 mPa·s
318.15 K, 101 kPa, x1 = 0.00045	0.6014 ± 0.014 mPa·s
318.15 K, 101 kPa, x1 = 0.000844	0.6454 ± 0.031 mPa·s and 0.6454 ± 0.03 mPa·s
318.15 K, 101 kPa, x1 = 0.0009	0.6059 ± 0.014 mPa·s
318.15 K, 101 kPa, x1 = 0.00135	0.6104 ± 0.014 mPa·s
318.15 K, 101 kPa, x1 = 0.00178	0.6589 ± 0.031 mPa·s and 0.6589 ± 0.03 mPa·s
318.15 K, 101 kPa, x1 = 0.0018	0.6149 ± 0.014 mPa·s
318.15 K, 101 kPa, x1 = 0.002245	0.6195 ± 0.014 mPa·s
318.15 K, 101 kPa, x1 = 0.002695	0.624 ± 0.014 mPa·s
318.15 K, 101 kPa, x1 = 0.003596	0.6733 ± 0.032 mPa·s and 0.6733 ± 0.031 mPa·s
318.15 K, 101 kPa, x1 = 0.005338	0.6747 ± 0.032 mPa·s and 0.6747 ± 0.031 mPa·s
318.15 K, 101 kPa, x1 = 0.007149	0.6774 ± 0.032 mPa·s and 0.6774 ± 0.031 mPa·s
318.15 K, 101 kPa, x1 = 0.008823	0.699 ± 0.033 mPa·s and 0.699 ± 0.031 mPa·s
318.15 K, 101 kPa, x1 = 0.01087	0.7009 ± 0.033 mPa·s and 0.7009 ± 0.031 mPa·s
318.15 K, 101 kPa, x1 = 0.0124	0.7145 ± 0.034 mPa·s and 0.7145 ± 0.031 mPa·s
318.15 K, 101 kPa, x1 = 0.01417	0.7345 ± 0.035 mPa·s and 0.7345 ± 0.031 mPa·s
323.15 K, 101 kPa, x1 = 0.005374	0.5833 ± 0.012 mPa·s
323.15 K, 101 kPa, x1 = 0.008931	0.6095 ± 0.013 mPa·s
323.15 K, 101 kPa, x1 = 0.01069	0.6229 ± 0.013 mPa·s
323.15 K, 101 kPa, x1 = 0.01245	0.6364 ± 0.013 mPa·s
